ChEMBL document CHEMBL1201862, “PubChem BioAssay data set” (2004)
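Values below derive from 48-hour exposures of cells grown in 96-well plates, with endpoints linearly interpolated between the two concentrations bracketing the appropriate inhibition level. GI50 marks 50% less growth.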 Active and inactive are the calls of the source. Cut-off read from the data, not from the text of the source: active = GI50 up to about 1.1 µM and inactive = higher.

How the values were obtained:
Test in all cases: NCI-60 cell line screen, 48 h
DMS-273 = system: DMS-273
M19-MEL = system: M19-MEL
DMS-114 = system: DMS-114
HOP-18 = system: HOP-18
DLD-1 = system: DLD-1
XF498 = system: XF498
LXFL 529 = system: LXFL 529
SNB-78 = system: SNB-78
RXF 631 = system: RXF 631

Row | SMILES | GI50 (DMS-273) | GI50 (M19-MEL) | GI50 (DMS-114) | GI50 (HOP-18) | GI50 (DLD-1) | GI50 (XF498) | GI50 (LXFL 529) | GI50 (SNB-78) | GI50 (RXF 631)
1 | Cc1ccc2c(c1)C1(C)OC(CC(N)C1O)O2 (configuration not stated) | > 100 µM (inactive) | > 100 µM (inactive) | > 100 µM (inactive) | > 100 µM (inactive) | > 100 µM (inactive) |  |  |  | 
2 | C/C(=N\N(C)C)C(CN(C)C)C(c1ccccc1)c1c(O)c2ccccc2oc1=O (configuration not stated) | > 100 µM (inactive) |  | > 100 µM (inactive) |  | > 100 µM (inactive) | > 100 µM (inactive) | > 100 µM (inactive) | > 100 µM (inactive) | 
3 | Cc1cccc(C(C)(C)C)c1NC(=O)CC1Sc2ccccc2NC1=O (configuration not stated) | 32.9 µM (inactive) | 66.8 µM (inactive) | 24.8 µM (inactive) | 57.9 µM (inactive) | 57.4 µM (inactive) |  | 52.6 µM (inactive) |  | 36.7 µM (inactive)
4 | CC(=O)NC(CCCN(Cc1ccccc1)C(=O)N(C)N=O)C(=O)NCc1ccccc1 (configuration not stated) | > 100 µM (inactive) | > 100 µM (inactive) | > 100 µM (inactive) |  | > 100 µM (inactive) | > 100 µM (inactive) | > 100 µM (inactive) | > 100 µM (inactive) | > 100 µM (inactive)
5 | O=C(NCCCCCCNC(=O)n1cc(F)c(=O)[nH]c1=O)NCCCOCCOCCOCCOCCOCCOCCOCCOCCOCCOCCOCCOCCOCCOCCOCCOCCOCCOCCOCCOCCOCCCNC(=O)C(O)C(O)C(O)C(O)CO (configuration not stated) | 33.3 µM (inactive) | 61.7 µM (inactive) | > 100 µM (inactive) | > 100 µM (inactive) | 9.33 µM (inactive) | 15.6 µM (inactive) |  | > 100 µM (inactive) | 
6 | Nc1ccc(C(=O)N/C(=C\C=C\c2ccco2)c2nc3c(O)nc(S)nc3[nH]2)cc1 | > 100 µM (inactive) | > 100 µM (inactive) |  |  | > 100 µM (inactive) | > 100 µM (inactive) | > 100 µM (inactive) | > 100 µM (inactive) | > 100 µM (inactive)
7 | COc1ccc(C(=O)O)c(Br)c1OCc1ccccc1 | > 100 µM (inactive) | > 100 µM (inactive) | > 100 µM (inactive) |  | > 100 µM (inactive) | > 100 µM (inactive) | > 100 µM (inactive) | > 100 µM (inactive) | 
8 | CCCCCc1cc(OC(=O)c2c(O)cc(OC)cc2CCCCC)cc(O)c1C(=O)O | 16.1 µM (inactive) | 18.4 µM (inactive) | 14.7 µM (inactive) |  | 13 µM (inactive) | 15.3 µM (inactive) | 16.5 µM (inactive) | 30.9 µM (inactive) | 
9 | CC(=O)[C@@]1(O)CC[C@H]2[C@@H]3C[C@H](C)C4=CC(=O)C=C[C@]4(C)[C@@]3(F)[C@@H](O)C[C@@]21C [FLUOROMETHOLONE] | > 100 µM (inactive) | > 100 µM (inactive) | > 100 µM (inactive) |  | > 100 µM (inactive) | > 53.5 µM (inactive) | > 100 µM (inactive) | > 100 µM (inactive) | > 100 µM (inactive)
10 | COc1cccc2c1[C@H]1CO[C@H]3C4C[C@H](C(=O)O)C([C@@H](C2)N13)N4C (some centres not stated) | 3.6 µM (inactive) | 3.64 µM (inactive) | 2.22 µM (inactive) | 6.12 µM (inactive) | 2.84 µM (inactive) | 2.08 µM (inactive) | 2.27 µM (inactive) | 3.72 µM (inactive) | > 10 µM (inactive)
11 | O/N=C(\C(=N/O)Nc1ccc(-c2ccc(NC(=N/O)/C(=N\O)c3ccccc3)cc2)cc1)c1ccccc1 | 19.1 µM (inactive) | 17.2 µM (inactive) |  | 13.6 µM (inactive) | 22.3 µM (inactive) | 19.3 µM (inactive) | 15.7 µM (inactive) | 30.8 µM (inactive) | 
12 | O=C(Nc1cccc([N+](=O)[O-])c1)C(=O)C(C(=O)c1ccccc1-c1ccccc1)C1OC(=O)c2ccccc21 (configuration not stated) |  | 15.9 µM (inactive) | 14.5 µM (inactive) |  | 19.9 µM (inactive) | 20.4 µM (inactive) | 13.1 µM (inactive) | 23.2 µM (inactive) | 22 µM (inactive)
13 | Cc1ccc(C[P+]2(c3ccccc3)CCCCC2)cc1.[O-][Cl+3]([O-])([O-])[O-] | 35 µM (inactive) | 15.7 µM (inactive) | 14.2 µM (inactive) |  | 84.3 µM (inactive) | < 0.01 µM (active) | 14 µM (inactive) | 25.9 µM (inactive) | 
14 | [N-]=[N+]=CC(=O)CCC(N)C(=O)O (configuration not stated) | 1.09 µM (active) | 1.59 µM (inactive) | 1.87 µM (inactive) | 43.3 µM (inactive) | 1.02 µM (active) | 22 µM (inactive) |  | 4.25 µM (inactive) | 
15 | CCC(CO)Nc1nc2c(c(=O)n(C)c(=O)n2C)n1CCO (configuration not stated) | > 100 µM (inactive) | > 100 µM (inactive) |  |  |  |  | > 100 µM (inactive) | 4.91 µM (inactive) | 
16 | CC1=CC(/C=C(\C)CCCc2ccoc2)C2(OC(=O)C(C)=C2O)[C@H]2C1CC[C@@H]2C (some centres not stated) | > 10 µM (inactive) | 29 µM (inactive) | 22.1 µM (inactive) | 14.2 µM (inactive) | 25.5 µM (inactive) |  | 18.7 µM (inactive) | 30.5 µM (inactive) | 

Row | SMILES | GI50 (DMS-273) | GI50 (M19-MEL) | GI50 (DMS-114) | GI50 (HOP-18) | GI50 (DLD-1) | GI50 (XF498) | GI50 (LXFL 529) | GI50 (SNB-78) | GI50 (RXF 631)
17 | CCSCN(C)c1nc(N(C)C)nc(N(C)C)n1 | 38.6 µM (inactive) | 64 µM (inactive) | 25.9 µM (inactive) | > 100 µM (inactive) | 83 µM (inactive) |  | 45.3 µM (inactive) | > 100 µM (inactive) | 
18 | CC#C[C@@]1(O)CCCCC1O (some centres not stated) | > 100 µM (inactive) | > 100 µM (inactive) | > 100 µM (inactive) | > 100 µM (inactive) |  | > 100 µM (inactive) |  | > 100 µM (inactive) | > 100 µM (inactive)
19 | CCc1cccc(C)c1NC(=O)CCc1nnc2s/c(=C\c3cccc4ccccc34)c(=O)n12 | 61.4 µM (inactive) | > 100 µM (inactive) | 36 µM (inactive) |  | 60 µM (inactive) | > 100 µM (inactive) | 73.3 µM (inactive) | > 100 µM (inactive) | > 100 µM (inactive)
20 | CCN(CC)CCCC(C)Nc1ccnc2cc(Cl)ccc12 (configuration not stated) [CHLOROQUINE PHOSPHATE] | 28.1 µM (inactive) |  | 24.3 µM (inactive) |  | > 100 µM (inactive) | 17.9 µM (inactive) | 57.3 µM (inactive) | 29.9 µM (inactive) | 
21 | CCN(CC)CC(C)C(=O)/C=C/c1ccc(C)cc1 (configuration not stated) | 2.23 µM (inactive) | 1.67 µM (inactive) | 1.77 µM (inactive) | 10.5 µM (inactive) | 1.67 µM (inactive) | 1.54 µM (inactive) | 1.76 µM (inactive) | 4.59 µM (inactive) | 
22 | COC(=O)C(=O)C(CC(=O)Nc1cccc(C(F)(F)F)c1)C(=O)OC (configuration not stated) |  | > 100 µM (inactive) | > 100 µM (inactive) |  | > 100 µM (inactive) |  | > 100 µM (inactive) | > 100 µM (inactive) | 
23 | COC(=O)C(C#CCCCCC#CC(NC(=O)OCc1ccccc1)(C(=O)OC)C(F)(F)F)(NC(=O)OCc1ccccc1)C(F)(F)F (configuration not stated) |  | > 100 µM (inactive) | 28.1 µM (inactive) | > 100 µM (inactive) | > 100 µM (inactive) |  | > 100 µM (inactive) | > 100 µM (inactive) | > 100 µM (inactive)
24 | O=C(/C=C/c1ccccc1)CCN1CCOCC1 | 16.9 µM (inactive) | 14.6 µM (inactive) | 9.25 µM (inactive) | 17.7 µM (inactive) | 9.29 µM (inactive) | 14.7 µM (inactive) | 2.78 µM (inactive) | 19 µM (inactive) | 
25 | NC(=O)C1C(=O)Oc2cccnc21 (configuration not stated) | > 100 µM (inactive) | > 100 µM (inactive) | > 100 µM (inactive) | > 100 µM (inactive) | > 100 µM (inactive) | > 100 µM (inactive) |  |  | 
26 | COc1ccc2ccc([Se]c3ccc4ccc(OC)cc4c3)cc2c1 | > 100 µM (inactive) | > 100 µM (inactive) | 64 µM (inactive) | 28.9 µM (inactive) | > 100 µM (inactive) | 43 µM (inactive) | > 100 µM (inactive) | 53.6 µM (inactive) | 
27 | O=C1COc2cc3c(cc2N1)SCCC(=O)N3 | > 100 µM (inactive) | > 100 µM (inactive) | > 100 µM (inactive) | > 100 µM (inactive) | > 100 µM (inactive) | > 100 µM (inactive) | > 100 µM (inactive) |  | > 100 µM (inactive)
28 | COc1cc2c(c3c1C=CCO3)C(=O)c1ccccc1C2=O | 49.1 µM (inactive) | 76.6 µM (inactive) | 53.1 µM (inactive) | 83.8 µM (inactive) | 24.2 µM (inactive) |  | 31.2 µM (inactive) | > 100 µM (inactive) | 
29 | CC(=O)Oc1c2c(c(O)c3ccccc13)C(n1cnc3c(ncn3C3OC(CO)C4OC(C)(C)OC43)c1=N)CCC2 (configuration not stated) | 18.1 µM (inactive) | 11.6 µM (inactive) | 6.44 µM (inactive) | 20.3 µM (inactive) | 13.1 µM (inactive) |  |  | 23 µM (inactive) | 
30 | COC1CC(OS(=O)(=O)c2ccc(C)cc2)C(OS(=O)(=O)c2ccc(C)cc2)C(COS(=O)(=O)c2ccc(C)cc2)O1 (configuration not stated) | 5.32 µM (inactive) | 7.38 µM (inactive) | 2.92 µM (inactive) | 2.24 µM (inactive) | 8.75 µM (inactive) |  | 5.77 µM (inactive) | 5.46 µM (inactive) | 
31 | C/C(=N\NC(=[Se])N(C)C)c1ccccn1 | 0.316 µM (active) | 0.339 µM (active) | < 0.01 µM (active) | 2.1 µM (inactive) | < 0.01 µM (active) | 0.198 µM (active) | < 0.01 µM (active) | 2.97 µM (inactive) | < 0.01 µM (active)
